Reference: US6723753B2, “Substituted n-benzyl-n-phenyl aminoalcohol compounds useful for inhibiting cholesteryl ester transfer protein activity” (Pharmacia Corporation, priority 2002, dated 2004)

Experiments:
CETP [1] = target: T1, CETP (Homo sapiens, UniProt P11597); assay: Assay of CETP Inhibition in Human Plasma; type: biochemical; design: Blood was obtained from healthy volunteers, recruited from the personnel of Monsanto Company; from tissue; host or cells: human EDTA plasma pool from healthy volunteers; details: transfer of [3H]CE from HDL to VLDL and LDL
T1 sequence (P11597 18-493): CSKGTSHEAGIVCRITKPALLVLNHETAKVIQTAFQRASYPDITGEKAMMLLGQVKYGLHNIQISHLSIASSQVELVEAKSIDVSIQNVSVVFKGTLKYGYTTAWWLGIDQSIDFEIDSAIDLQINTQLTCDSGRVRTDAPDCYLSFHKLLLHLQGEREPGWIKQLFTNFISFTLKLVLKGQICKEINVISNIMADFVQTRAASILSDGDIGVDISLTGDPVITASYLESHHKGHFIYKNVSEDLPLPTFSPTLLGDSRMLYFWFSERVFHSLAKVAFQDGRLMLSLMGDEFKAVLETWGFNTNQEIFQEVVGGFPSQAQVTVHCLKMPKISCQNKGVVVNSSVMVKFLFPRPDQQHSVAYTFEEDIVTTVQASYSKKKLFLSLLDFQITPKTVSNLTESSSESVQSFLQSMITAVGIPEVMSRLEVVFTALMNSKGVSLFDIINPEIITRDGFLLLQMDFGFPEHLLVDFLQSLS
Experimental: Assay of CETP Inhibition in Human Plasma
Blood was obtained from healthy volunteers, recruited from the personnel of Monsanto Company, Saint Louis, Mo. Blood was collected in tubes containing EDTA (EDTA plasma pool). The EDTA human plasma pool, previously stored at −20° C., was thawed at room temperature and centrifuged for 5 minutes to remove any particulate matter. […] Equal volumes (396 μL) of the plasma containing the [^3H]CE-HDL were added by pipette into micro tubes (Titertube®, Bio-Rad laboratories, Hercules, Calif.). Inhibitor compounds, dissolved as 20-50 mM stock solutions in DMSO, were serially diluted in DMSO (or an alternative solvent in some cases, such as dimethylformamide or ethanol). Four μL of each of the serial dilutions of inhibitor compounds or DMSO alone were then added to each of the tubes containing plasma (396 μL). After mixing, triplicate aliquots (100 μL) from each plasma tube were then transferred to wells of 96-well round-bottomed polystyrene microtiter plates (Corning, Corning, N.Y.). Plates were sealed with plastic film and incubated at 37° C. for 4 hours. “Test” samples contained plasma with dilutions of inhibitor compounds. “Control” samples contained plasma with DMSO diluted to the same concentration as the test samples, but without inhibitor. “Blank” samples were prepared as “control” samples, but were left in the micro tubes at 4° C. for the 4 hour incubation and were then added to the microtiter wells at the end of the incubation period. VDL and LDL were precipitated by the addition of 10 μL of precipitating reagent (1% (w/v) dextran sulfate (Dextralip50)/0.5 M magnesium chloride, pH 7.4) to all wells. The wells were mixed on a plate mixer and then incubated at ambient temperature for 10 min. The plates were then centrifuged at 1000× g for 30 min at 10° C. The supernatants (50 μL) from each well were then transferred to Picoplate™ 96 plate wells (Packard, Meriden, Conn.) containing Microscint™-40 (Packard, Meriden, Conn.). The plates were heat-sealed (TopSeal™-P, Packard, Meriden, Conn.) according to the manufacturer's directions and mixed for 30 min. Radioactivity was measured on a microplate scintillation counter (TopCount, Packard, Meriden, Conn.). The maximum percentage transfer in the control wells (% transfer) was determined using the following equation: [formula]
The percentage of transfer relative to the control (% control) was determined in the wells containing inhibitor compounds was determined as follows: [formula]
IC50 values were then calculated from plots of % control versus concentration of inhibitor compound.

CETP [2] = target: T1, CETP; assay: Assay of CETP Inhibition using Purified Components (Reconstituted Buffer Assay); type: biochemical; design: made in house; host or cells: CHO cells (serum-free conditioned medium); details: Inhibition of CETP activity in reconstituted buffer assay; transfer of [3H]CE from HDL to LDL; read-out: IC50
How it was run: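 Transfer of radiolabeled cholesteryl ester from HDL to LDL was run for 2 h at 37 °C in pH 7.4 Tris buffer with 1% BSA, using purified CHO-expressed human CETP. Precipitated LDL radioactivity, measured by scintillation after dextran sulfate/MgCl2 precipitation and filtration, yielded the IC50.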

[3] = Inhibition of CETP activity in human plasma assay, read-out: IC50

Compound	IC50 (CETP [1]; [3])	IC50 (CETP [2])	IC50 (CETP [1]; IC50, Inhibition of CETP activity in human plasma assay)
COc1ccc(Nc2cccc(N(Cc3cccc(OC(F)(F)C(F)F)c3)CC(O)C(F)(F)F)c2)cc1OC (centres unmarked) [Example 309]	> 100 µM	2.6 µM	
OC(CN(Cc1cccc(OC(F)(F)C(F)F)c1)c1cccc(NCc2cccc(C(F)(F)F)c2)c1)C(F)(F)F (centres unmarked) [Example 311]	> 100 µM	2.6 µM	
CCN(c1cccc(C)c1)c1cccc(N(Cc2cccc(OC(F)(F)C(F)F)c2)CC(O)C(F)(F)F)c1 (centres unmarked) [Example 312]	65 µM	1.8 µM	
OC(CN(Cc1cccc(I)c1)c1cccc(OC(F)(F)F)c1)C(F)(F)F (centres unmarked) [Example 322]	> 100 µM	3 µM	
OC(CN(Cc1cccc(OC(F)(F)C(F)F)c1)c1cccc(OCc2cc(C(F)(F)F)cc(C(F)(F)F)c2)c1)C(F)(F)F (centres unmarked) [Example 377]	24 µM	0.23 µM	
OC(CN(Cc1cccc(OC(F)(F)C(F)F)c1)c1cccc(OCc2cc(F)cc(F)c2)c1)C(F)(F)F (centres unmarked) [Example 378]	12 µM	0.2 µM	
OC(CN(Cc1cccc(OC(F)(F)C(F)F)c1)c1cccc(OCc2cccc(C(F)(F)F)c2)c1)C(F)(F)F (centres unmarked) [Example 379]		0.098 µM	7.7 µM
Cc1ccc(COc2cccc(N(Cc3cccc(OC(F)(F)C(F)F)c3)CC(O)C(F)(F)F)c2)cc1 (centres unmarked) [Example 385]	29 µM	0.42 µM	
OC(CN(Cc1cccc(OC(F)(F)C(F)F)c1)c1cccc(OCc2ccc(OC(F)F)cc2)c1)C(F)(F)F (centres unmarked) [Example 389]	> 50 µM	0.7 µM	
OC(CN(Cc1cccc(OC(F)(F)C(F)F)c1)c1cccc(OCc2ccccc2F)c1)C(F)(F)F (centres unmarked) [Example 390]	24 µM	0.34 µM	
OC(CN(Cc1cccc(OC(F)(F)C(F)F)c1)c1cccc(OCc2ccc(F)cc2)c1)C(F)(F)F (centres unmarked) [Example 391]	25 µM	0.56 µM	
OC(CN(Cc1cccc(OC(F)(F)C(F)F)c1)c1cccc(OCc2cccc(Cl)c2F)c1)C(F)(F)F (centres unmarked) [Example 393]	5 µM	0.82 µM	
OC(CN(Cc1cccc(OC(F)(F)C(F)F)c1)c1cccc(OCc2ccc(F)cc2F)c1)C(F)(F)F (centres unmarked) [Example 395]	10 µM	1.1 µM	
OC(CN(Cc1cccc(OC(F)(F)C(F)F)c1)c1cccc(OCc2ccc(C(F)(F)F)cc2C(F)(F)F)c1)C(F)(F)F (centres unmarked) [Example 396]	10 µM	0.86 µM	
OC(CN(Cc1cccc(OC(F)(F)C(F)F)c1)c1cccc(OCc2cc(F)ccc2F)c1)C(F)(F)F (centres unmarked) [Example 397]	10 µM	0.81 µM	
OC(CN(Cc1cccc(OC(F)(F)C(F)F)c1)c1cccc(OCc2cccc(F)c2F)c1)C(F)(F)F (centres unmarked) [Example 399]	3.4 µM	0.35 µM	
OC(CN(Cc1cccc(OC(F)(F)C(F)F)c1)c1cccc(OCc2cccc(C(F)(F)F)c2F)c1)C(F)(F)F (centres unmarked) [Example 400]	6.3 µM	0.21 µM	
OC(CN(Cc1cccc(OC(F)(F)C(F)F)c1)c1cccc(OCc2cccc(Br)c2)c1)C(F)(F)F (centres unmarked) [Example 401]	4.2 µM	0.18 µM	
Cc1cccc(COc2cccc(N(Cc3cccc(OC(F)(F)C(F)F)c3)CC(O)C(F)(F)F)c2)c1 (centres unmarked) [Example 402]	2.9 µM	0.33 µM	

Compound	IC50 (CETP [1]; [3])	IC50 (CETP [2])	IC50 (CETP [1]; IC50, Inhibition of CETP activity in human plasma assay)
OC(CN(Cc1cccc(OC(F)(F)C(F)F)c1)c1cccc(OCc2cccc(I)c2)c1)C(F)(F)F (centres unmarked) [Example 405]	6.2 µM	0.6 µM	
CC(Oc1cccc(N(Cc2cccc(OC(F)(F)C(F)F)c2)CC(O)C(F)(F)F)c1)c1ccccc1 (centres unmarked) [Example 429]	4.4 µM	0.44 µM	
O=[N+]([O-])c1ccccc1Oc1cccc(N(Cc2cccc(OC(F)(F)C(F)F)c2)CC(O)C(F)(F)F)c1 (centres unmarked) [Example 436, 3-[[3-(2-nitrophenoxy)phenyl][[3-(1,1,2,2-tetrafluoroethoxy)phenyl]-methyl]amino]-1,1,1-trifluoro-2-propanol]	14 µM	0.42 µM	
O=[N+]([O-])c1cc(Br)ccc1Oc1cccc(N(Cc2cccc(OC(F)(F)C(F)F)c2)CC(O)C(F)(F)F)c1 (centres unmarked) [Example 439]	13 µM	1 µM	
O=[N+]([O-])c1c(F)cccc1Oc1cccc(N(Cc2cccc(OC(F)(F)C(F)F)c2)CC(O)C(F)(F)F)c1 (centres unmarked) [Example 440]	24 µM	0.77 µM	
Cc1ccc([N+](=O)[O-])cc1Oc1cccc(N(Cc2cccc(OC(F)(F)C(F)F)c2)CC(O)C(F)(F)F)c1 (centres unmarked) [Example 447]	> 50 µM	9.8 µM	
CC(C)Sc1cccc(N(Cc2cccc(OC(F)(F)C(F)F)c2)CC(O)C(F)(F)F)c1 (centres unmarked) [Example 473, 3-[[3-[(1-methylethyl)thio]phenyl][[3-(1,1,2,2-tetrafluoroethoxy)phenyl]-methyl]amino]-1,1,1-trifluoro-2-propanol]	16 µM	0.37 µM	
O=[N+]([O-])c1ccc(Sc2cccc(N(Cc3cccc(OC(F)(F)C(F)F)c3)CC(O)C(F)(F)F)c2)cc1 (centres unmarked) [Example 475]	37 µM	0.64 µM	
CC(C)Oc1cccc(N(Cc2cccc(OC(F)(F)C(F)F)c2)CC(O)C(F)(F)F)c1 (centres unmarked) [Example 489]	8.8 µM	0.33 µM	
COC(=O)C=CCOc1cccc(N(Cc2cccc(OC(F)(F)C(F)F)c2)CC(O)C(F)(F)F)c1 (centres unmarked) [Example 499]	34 µM	0.83 µM	
OC(CN(Cc1cccc(OC(F)(F)C(F)F)c1)c1cccc(-c2cccc(C(F)(F)F)c2)c1)C(F)(F)F (centres unmarked) [Example 550, 1,1,1-trifluoro-3-[[[3-(1,1,2,2-tetrafluoroethoxy)phenyl]methyl][[3′-(trifluoromethyl)1,1′-biphenyl]-3-yl]amino]-2-propanol]	30 µM	0.5 µM	
OC(CN(Cc1cccc(OC(F)(F)C(F)F)c1)c1cccc(-c2ccc(F)c(Cl)c2)c1)C(F)(F)F (centres unmarked) [Example 554]	18 µM	0.75 µM	
O=[N+]([O-])c1cccc(-c2cccc(N(Cc3cccc(OC(F)(F)C(F)F)c3)CC(O)C(F)(F)F)c2)c1 (centres unmarked) [Example 556]	49 µM	0.92 µM	
OC(CN(Cc1cccc(OC(F)(F)C(F)F)c1)c1cccc(-c2cc(Cl)cc(Cl)c2)c1)C(F)(F)F (centres unmarked) [Example 557]	34 µM	0.88 µM	
COc1ccc(-c2cccc(N(Cc3cccc(OC(F)(F)C(F)F)c3)CC(O)C(F)(F)F)c2)cc1 (centres unmarked) [Example 558]	38 µM	0.69 µM	
OC(CN(Cc1cccc(OC(F)(F)C(F)F)c1)c1cccc(-c2ccc(F)c(F)c2)c1)C(F)(F)F (centres unmarked) [Example 559]	8 µM	0.56 µM	
OC(CN(Cc1cccc(OC(F)(F)C(F)F)c1)c1cccc(-c2ccc(F)c(F)c2F)c1)C(F)(F)F (centres unmarked) [Example 560]	11 µM	1 µM	
OC(CN(Cc1cccc(-c2cccs2)c1)c1cccc(Oc2ccccc2)c1)C(F)(F)F (centres unmarked) [Example 595, 3-[(3-phenoxyphenyl) [[3-(2-thienyl)phenyl]methyl]amino]-1,1,1-trifluoro-2-propanol]	42 µM	1.1 µM	
